Experimental data from patent US6699676B1, “Uses of ouabain and ouabain-like molecules in apoptosis related pathologies” (Corporation du Centre de Recherche du Centre, Hospitalier …, priority 1999, dated 2004).

Legend:
[1] = system: VSMC; assay: Chromatin cleavage assay in non-transfected VSMC; format: cell-based, rat
Protocol: (§1) Cells were incubated in K^+-containing medium consisting of 91 mM NaCl, 5 mM KCl, 0.9 mM NaH2PO4, 44 mM NaHCO3, 1.8 mM CaCl2, 0.8 mM MgCl2, 33 mM HEPES and 5 mM D-glucose (pH 7.4) (lines 1 and 2) or in K^+-depleted medium (equimolar substitution of KCl by NaCl, line 3) with or without 10% calf serum (CS) and 1 mM ouabain as indicated. In experiments with VSMC-MYC and VSMC-E1A, cells were preincubated for 1 hr with ouabain or with K^+-depleted medium in the presence of CS and then subjected to treatment with serum-free media. After 24 hours (VSMC) or 6 hours (VSMC-MYC and VSMC-E1A), the content of chromatin fragments was measured as described in Experimental Procedures. Mean values±S.E. obtained in 3 experiments performed in quadruplicate (VSMC) or triplicate (VSMC-MYC, VSMC-E1A) are given. ★, ★★ p<0.05 and 0.001 compared to the controls.
VSMC growing in 6-well (LDH release) or 24-well (chromatin cleavage assay) plates were preincubated for 3 hours with or without 1 mM ouabain. In part of the experiments, the cells were subjected to 30 min incubation at 46° C. (heat-treated cells, line 3). They were then incubated in the absence or presence of 10% calf serum during additional 8 hr and chromatin cleavage and LDH release were measured as indicated in Experimental Procedures and with a spectrophotometric kit (Sigma), respectively. Means±S.E. from experiments performed in triplicate (LDH release) or quadruplicate (chromatin cleavage) are given. ★, ★★ p<0.05 and 0.001 compared to ouabain-untreated cells. #p<0.001 compared to serum-supplied, heat-untreated cells.
Cells. VSMC were obtained by explant methods from aortas of 10- to 13-week-old male rats as described previously (17), cultured in DMEM with 10% calf serum, 100 U/ml penicillin, 100 µg/ml streptomycin and used between 10 to 16 passages. Cells transfected with c-myc (VSMC-MYC) and E1A-adenovirus (VSMC-E1A) were obtained in accordance with a previously-described protocol (18,19) and were cultured in the same medium with the addition of 500 µg/ml genticin. Jurkat cells were obtained from the American Type Culture Collection and cultured in RPMI 1640 medium supplied with 10% calf serum, antibiotics, sodium pyruvate, glutamate and β-mercaptoethanol.
Chromatin cleavage assay. Chromatin cleavage in VSMC was estimated by a technique described previously in detail (10). Briefly, VSMC grown in 24-well dishes were labeled for 24 hours in serum-supplied DMEM with [^3H]-thymidine (1 μCi/ml), washed with 2×2 ml of DMEM and incubated in serum-supplied DMEM. […] After 15 min, the cell lysate was transferred to Ependorf tubes, sedimented (12,000 rpm, 10 mm), and 1 ml of supernatant was transferred for the measurement of radioactivity (A1t). The remaining radioactivity from pellets and wells was extracted with 0.5 ml of 1% SDS/4 mM EDTA mixture, combined and counted (A2). Chromatin cleavage was quantified as the content of chromatin fragments normalized by total content of [^3H]-labeled DNA in accordance with the equation [1.5×(A1t−A1o)/(A2+A1t−1.5A1o)]×100% where A1o is the value of A1t before induction of apoptosis. […] At the time intervals shown in FIG. 4, 100 μl of cell suspension was mixed with 100 μl of PBS contairung 0.5% triton X100, and the content of chromatin fragments was measured as described previously in detail (20).

[2] = system: VSMC-E1A; assay: Cell morphology by phase contrast microscopy in VSMC-E1A; format: cell-based, rat; conditions: 1 mM ouabain pretreatment, 6 hours serum-deprived medium
Protocol: (§2) FIG. 3. Effect of ouabain on morphology (A) and DNA laddering (B and C) in VSMC-E1A. In experiments with ouabain, cells were pretreated with 1 mM of this compound 1 hour before 6 hours exposure to serum-free medium. A. Cell morphology was evaluated by phase contrast microscopy without preliminary fixation. a, c) DMEM containing 10% calf serum; b, d) serum-free DMEM; a, b) without ouabain; c, d) in the presence of ouabain. Micro graphs were prepared using a Nikon phase contrast microscope at ×100 magnification. Apoptotic cells are shown by arrows. B. DNA laddering (left part of the figure) was analyzed with a PhosphorImager, and relative content of low molecular weight DNA fragments (1,500−125 bp−right part of the figure) in cells incubated with 10% calf serum (CS) in the absence of ouabain was taken as 100%. Means±S.E. obtained in 2 experiments performed in triplicate are shown.

[3] = system: VSMC-E1A; assay: 3'-end DNA labeling / DNA laddering in VSMC-E1A; format: cell-based, rat; conditions: 1 mM ouabain, serum deprivation
Protocol: as §2
3′-end DNA labeling. VSMC-E1A seeded in 75 cm^2 flasks were treated with 4 ml of lysis buffer containing 50 mM tris-HCI, 20 mM EDTA (pH 8.0), 0.5% SDS and 500 μg/ml proteinase K. The lysate was incubated at 50° C. for 3 hours, mixed with 250 μg/ml RNAase A and incubated for 1 hour at 37° C. […] After 1 hour incubation at 37° C., the aliquots were loaded on 1.5% agarose gel, run at 100 V for 3 to 4 hours, transferred onto a nylon membrane (Hybond N+, Amersham), and analyzed with a PhosphorImager. […]

[4] = system: VSMC; assay: Protein synthesis in VSMC; conditions: 8 hours incubation with ouabain, data not shown
[5] = system: VSMC-MYC; assay: Chromatin cleavage assay in VSMC-MYC; format: cell-based, rat; conditions: 1 mM ouabain, 1 hr preincubation, 6 hours
Protocol: as §1, with “Mean values±S.E. obtained in 3 experiments performed in quadruplicate (VSMC) or triplicate (VSMC-MYC, VSMC-E1A) are given. ★, ★★ p<0.05 and 0.001 compared to the controls.” left out
Chromatin cleavage assay. […] After 15 min, the cell lysate was transferred to Ependorf tubes, sedimented (12,000 rpm, 10 mm), and 1 ml of supernatant was transferred for the measurement of radioactivity (A1t). The remaining radioactivity from pellets and wells was extracted with 0.5 ml of 1% SDS/4 mM EDTA mixture, combined and counted (A2). Chromatin cleavage was quantified as the content of chromatin fragments normalized by total content of [^3H]-labeled DNA in accordance with the equation [1.5×(A1t−A1o)/(A2+A1t−1.5A1o)]×100% where A1o is the value of A1t before induction of apoptosis. […]

## C[C@@H]1O[C@@H](O[C@H]2C[C@@H](O)[C@]3(CO)[C@H]4[C@H](O)C[C@]5(C)[C@@H](C6=CC(=O)OC6)CC[C@]5(O)[C@@H]4CC[C@]3(O)C2)[C@H](O)[C@H](O)[C@H]1O [Ouabain, 1β,3β,5,11α,14,19-hexahydroxycard 20 [22]-enolide 3-[6-deoxy-α-L-mannopyrano-sidel]]
[1]; VSMC, 10% CS, 1 mM ouabain, 24 hours
  Chromatin fragments (%): 1.6 ± 0.3%
[1]; VSMC, CS-free, 1 mM ouabain, 24 hours
  Chromatin fragments (%): 2.5 ± 0.6 %
[1]; serum-deprived VSMC, 3 hours preincubation 1 mM ouabain, additional 8 hr
  Chromatin fragments (%): 1.8 ± 0.3 %
[1]; serum-supplied VSMC, 3 hours preincubation 1 mM ouabain, additional 8 hr
  Chromatin fragments (%): 1.3 ± 0.4 %
[1]; serum-supplied, heat-treated (46° C., 30 min) VSMC, 1 mM ouabain, 8 hr
  Chromatin fragments (%): 1.6 ± 0.4%
[2]
  number of apoptotic cells: sharply decreased the number of apoptotic cells
[3]
  DNA laddering and low molecular weight 3'-end labeled DNA fragments: prevented DNA laddering
[4]
  protein synthesis: did not observe any significant effect
[5]; 10% CS
  Chromatin fragments (%): 1.4 ± 0.3%
[5]; CS-free
  Chromatin fragments (%): 3.1 ± 0.4 %
